{"source": "patent US20180271960A1", "about": "“METHOD TO TREAT CANCER USING ARGININE DELPETOR AND ORNITHINE DECARBOXYLASE (ODC) INHIBITOR” (Bio-Cancer Treatment International Ltd., priority 2015, published 2018)", "key": {"[1]": {"tested_on": "H1975 lung adenocarcinoma cell line", "assay": "MTT assay, growth inhibition of H1975 cell line", "format": "cell-based", "conditions": "48 h and 72 h at 0.5 ng/μl and 10 ng/μl", "method": "(§1) The inhibition ratio (IR) and the half maximal inhibitory concentration (IC50) values are determined by a MTT assay."}, "[2]": {"tested_on": "HCC2935 lung adenocarcinoma cell line", "assay": "MTT assay, growth inhibition of HCC2935 cell line", "format": "cell-based", "conditions": "72 h at 10 ng/μl only", "method": "as §1"}}}
{"substance": "arginine deiminase [ADI, reference compound]", "values": [{"measurement": "growth inhibition effect (cell proliferation)", "setting": "[1]", "result": "does not inhibit H1975 lung adenocarcinoma cell line proliferation"}, {"measurement": "growth inhibition effect (cell proliferation / toxicity)", "setting": "[2]", "result": "does not inhibit HCC2935 lung adenocarcinoma cell line proliferation"}]}
